What was measured:
[1] = biological target: DNA topoisomerase 2-alpha (Homo sapiens) (UniProt P11388); assay: Inhibition of topoisomerase 2alpha (unknown origin) assessed as relaxation of supercoiled plasmid pBR322 DNA at 100 uM relative to control
[2] = biological target: DNA topoisomerase 2-alpha (Homo sapiens) (UniProt P11388); assay: Inhibition of topoisomerase 2alpha (unknown origin) assessed as relaxation of supercoiled plasmid pBR322 DNA at 20 uM relative to control
DU-145 = assay: Antiproliferative activity against human DU-145 cells assessed as inhibition of cell proliferation; assay type: functional, cell-based
HCT-15 = assay: Antiproliferative activity against human HCT-15 cells assessed as inhibition of cell proliferation; assay type: functional, cell-based
T47D = assay: Antiproliferative activity against human T47D cells assessed as inhibition of cell proliferation; assay type: functional, cell-based
HeLa = assay: Antiproliferative activity against human HeLa cells assessed as inhibition of cell proliferation; assay type: functional, cell-based

Sequence of DNA topoisomerase 2-alpha (Homo sapiens) (P11388 whole entry): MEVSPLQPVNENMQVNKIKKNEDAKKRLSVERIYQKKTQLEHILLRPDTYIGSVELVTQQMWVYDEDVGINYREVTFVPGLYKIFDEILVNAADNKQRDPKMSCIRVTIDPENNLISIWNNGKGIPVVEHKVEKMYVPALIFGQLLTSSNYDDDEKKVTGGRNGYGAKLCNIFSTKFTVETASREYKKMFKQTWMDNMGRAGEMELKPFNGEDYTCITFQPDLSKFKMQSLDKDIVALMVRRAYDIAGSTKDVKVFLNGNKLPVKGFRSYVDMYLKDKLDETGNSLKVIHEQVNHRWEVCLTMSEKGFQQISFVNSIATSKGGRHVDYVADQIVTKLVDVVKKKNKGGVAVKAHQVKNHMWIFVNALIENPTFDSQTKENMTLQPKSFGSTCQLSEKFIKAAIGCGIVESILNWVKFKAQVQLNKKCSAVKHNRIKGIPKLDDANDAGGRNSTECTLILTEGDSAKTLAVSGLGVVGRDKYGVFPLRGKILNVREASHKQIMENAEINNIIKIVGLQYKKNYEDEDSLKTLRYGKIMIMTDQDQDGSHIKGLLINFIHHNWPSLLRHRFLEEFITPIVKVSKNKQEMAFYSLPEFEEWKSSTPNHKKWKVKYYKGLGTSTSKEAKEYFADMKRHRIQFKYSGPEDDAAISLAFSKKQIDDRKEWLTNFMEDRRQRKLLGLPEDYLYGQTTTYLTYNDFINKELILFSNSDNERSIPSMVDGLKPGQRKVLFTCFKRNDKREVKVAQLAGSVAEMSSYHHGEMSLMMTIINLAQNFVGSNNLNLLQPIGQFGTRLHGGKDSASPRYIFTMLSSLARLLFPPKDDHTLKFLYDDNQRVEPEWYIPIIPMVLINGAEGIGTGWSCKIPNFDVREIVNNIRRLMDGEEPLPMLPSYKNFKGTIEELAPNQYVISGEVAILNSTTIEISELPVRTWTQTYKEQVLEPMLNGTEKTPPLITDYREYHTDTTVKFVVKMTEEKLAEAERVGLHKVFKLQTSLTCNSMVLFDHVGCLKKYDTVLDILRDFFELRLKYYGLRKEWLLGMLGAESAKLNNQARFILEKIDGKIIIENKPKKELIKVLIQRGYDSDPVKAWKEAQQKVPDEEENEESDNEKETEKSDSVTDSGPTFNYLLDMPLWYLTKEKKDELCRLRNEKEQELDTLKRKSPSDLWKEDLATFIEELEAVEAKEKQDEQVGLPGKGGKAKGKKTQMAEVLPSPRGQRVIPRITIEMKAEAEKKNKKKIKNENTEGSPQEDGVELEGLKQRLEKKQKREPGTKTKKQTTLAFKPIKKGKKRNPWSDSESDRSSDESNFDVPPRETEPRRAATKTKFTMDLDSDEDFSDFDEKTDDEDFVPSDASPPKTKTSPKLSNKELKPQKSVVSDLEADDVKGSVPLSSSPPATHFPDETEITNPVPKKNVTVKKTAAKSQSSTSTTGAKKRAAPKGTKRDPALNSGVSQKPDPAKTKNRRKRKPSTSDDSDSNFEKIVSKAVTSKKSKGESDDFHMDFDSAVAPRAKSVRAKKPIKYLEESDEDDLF

SMILES	inhibition [1]	inhibition [2]	IC50 (DU-145)	IC50 (HCT-15)	IC50 (T47D)	IC50 (HeLa)
Oc1ccc(-c2cc(-c3ccccc3F)cc(-c3cccc(O)c3)n2)cc1	76.6%	42.1%	3.16 µM	5.63 µM	6.37 µM	14.3 µM
Oc1ccc(-c2cc(-c3ccccc3C(F)(F)F)cc(-c3cccc(O)c3)n2)cc1	61.9%	2.2%	2.75 µM	5.74 µM	3.21 µM	17.4 µM
Oc1ccc(-c2cc(-c3ccc(F)cc3)cc(-c3cccc(O)c3)n2)cc1	43.7%	30.4%	15.2 µM	5.02 µM	5 µM	8.08 µM
Oc1cccc(-c2cc(-c3ccccc3F)cc(-c3cccc(O)c3)n2)c1	31.1%	10.8%	11.2 µM	5.3 µM	4.37 µM	16 µM
Oc1cccc(-c2cc(-c3ccc(F)cc3)cc(-c3cccc(O)c3)n2)c1	36.6%	4.9%	7.12 µM	6.31 µM	6.87 µM	1.28 µM
Oc1ccc(-c2cc(-c3ccc(OC(F)(F)F)cc3)cc(-c3ccc(O)cc3)n2)cc1	59%	6.4%	5.39 µM	13.9 µM	5.15 µM	16.9 µM
Oc1ccc(-c2cc(-c3ccc(F)cc3)cc(-c3ccc(O)cc3)n2)cc1	97.1%	42.5%	6.03 µM	4.97 µM	5.26 µM	8.68 µM
Oc1ccc(-c2cc(-c3ccc(C(F)(F)F)cc3)cc(-c3cccc(O)c3)n2)cc1	44.1%	4.1%	> 50 µM	6.44 µM	2.87 µM	17.3 µM
Oc1ccc(-c2cc(-c3ccccc3OC(F)(F)F)cc(-c3cccc(O)c3)n2)cc1	45.2%	4.4%	7.76 µM	2.31 µM	7.3 µM	5.8 µM

Reference: ChEMBL document CHEMBL5131481, “Topoisomerase IIα inhibitory and antiproliferative activity of dihydroxylated 2,6-diphenyl-4-fluorophenylpyridines: Design, synthesis, and structure-activity relationships” (Bioorg Med Chem Lett, 2022)
